Measured values taken from patent US6835752B2, “Carboxylic acid derivatives, processes for the preparation thereof and pharmaceutical agents comprising the same as active ingredient” (Ono Pharmaceutical Co., Ltd., priority 2000, dated 2004).

Key:
Details in all cases: CHO cell membrane fraction, competition with [3H]-PGE2 2.5 nM
mouse EP1 receptor = target: T1, mouse EP1 receptor (Mus musculus, UniProt P35375); test: Binding assay using cell expressing the prostanoid receptor subtypes (EP1)
T1 construct: expressed in transfected cells; host or cells: CHO cells
T1 sequence (P35375 1-405): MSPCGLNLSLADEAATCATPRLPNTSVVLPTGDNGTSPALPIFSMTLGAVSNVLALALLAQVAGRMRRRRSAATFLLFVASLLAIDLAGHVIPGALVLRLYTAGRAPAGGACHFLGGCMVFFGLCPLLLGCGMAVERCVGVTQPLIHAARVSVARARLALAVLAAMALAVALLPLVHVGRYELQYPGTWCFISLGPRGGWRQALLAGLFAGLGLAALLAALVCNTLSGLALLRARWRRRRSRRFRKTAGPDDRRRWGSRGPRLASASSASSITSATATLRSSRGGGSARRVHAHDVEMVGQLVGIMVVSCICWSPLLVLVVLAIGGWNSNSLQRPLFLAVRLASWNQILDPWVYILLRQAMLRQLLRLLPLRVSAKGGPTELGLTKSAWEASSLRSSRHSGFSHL
Experimental: (§1) (i) Binding Assay Using Cell Expressing the Prostanoid Receptor Subtypes
(§2) The preparation of membrane fraction was carried out according to the method of Sugimoto et al [J. Biol. Chemical, 267, 6463-6466 (1992)], using CHO cell expressing prostanoid receptor subtypes (mouse EP1, EP2, EP3α, and EP4).
(§3) The standard assay mixture containing membrane fraction (50 μL), [^3H]—PGE2 in a final volume of 150 μL was incubated for 1 hour at room temperature. The reaction was terminated by addition of 3 mL of ice-cold buffer. The mixture was rapidly filtered through a glass filter (GF/B) under reduced pressure. The radioactivities associated with the filters were measured by liquid scintillation counter.
(§4) Kd and Bmax values were determined from Scatchard plots [Ann. N. Y. Acad. Sci. 51, 660(1949)]. Non-specific binding was determined as the amount bound in the presence of an excess (2.5 μM of unlabeled PGE2. In the experiment for competition of specific [^3H]—PGE2 binding assay, [^3H]—PGE2, was added at a concentration of 2.5 nM and a test compound of the present invention was added at various concentrations. The following buffer was used in all reactions.
(§5) Buffer: 10 mM potassium phosphate (pH 6.0), 1 mM EDTA, 10 mM MgCl2, 0.1 M NaCl.
(§6) The inhibition constant (Ki) (μM) of each compound was calculated by the following equation.

mouse EP2 receptor = target: T2, mouse EP2 receptor (Mus musculus, UniProt Q62053); test: Binding assay using cell expressing the prostanoid receptor subtypes (EP2)
T2 construct: expressed in transfected cells; host or cells: CHO cells
T2 sequence (Q62053 whole entry): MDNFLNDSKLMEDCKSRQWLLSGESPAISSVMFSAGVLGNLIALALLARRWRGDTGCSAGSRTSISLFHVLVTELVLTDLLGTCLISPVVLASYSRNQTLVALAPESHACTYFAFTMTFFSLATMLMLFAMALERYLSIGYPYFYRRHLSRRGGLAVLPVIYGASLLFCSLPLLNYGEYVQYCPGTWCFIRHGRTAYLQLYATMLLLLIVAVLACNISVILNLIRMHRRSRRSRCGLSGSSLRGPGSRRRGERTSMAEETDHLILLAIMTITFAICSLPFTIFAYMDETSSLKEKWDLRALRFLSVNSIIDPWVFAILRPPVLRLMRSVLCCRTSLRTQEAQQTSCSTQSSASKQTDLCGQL
Experimental: as §1, §2, §3, §4, §5, §6

mouse EP3α receptor = target: T3, mouse EP3α receptor (Mus musculus, UniProt P30557); test: Binding assay using cell expressing the prostanoid receptor subtypes (EP3)
T3 construct: expressed in transfected cells; host or cells: CHO cells
T3 sequence (P30557 1-365): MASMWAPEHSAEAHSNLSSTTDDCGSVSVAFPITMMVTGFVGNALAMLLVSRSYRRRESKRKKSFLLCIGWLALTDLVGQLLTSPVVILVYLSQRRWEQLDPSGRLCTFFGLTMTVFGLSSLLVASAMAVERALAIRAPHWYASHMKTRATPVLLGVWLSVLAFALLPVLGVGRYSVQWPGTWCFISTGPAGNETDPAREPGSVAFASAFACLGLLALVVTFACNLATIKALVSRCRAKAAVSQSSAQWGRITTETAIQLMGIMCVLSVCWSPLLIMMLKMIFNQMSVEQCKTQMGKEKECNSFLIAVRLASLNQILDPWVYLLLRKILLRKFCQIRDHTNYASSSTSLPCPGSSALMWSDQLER
Experimental: as §1, §2, §3, §4, §5, §6

mouse EP4 receptor = target: T4, mouse EP4 receptor (Mus musculus, UniProt P32240); test: Binding assay using cell expressing the prostanoid receptor subtypes (EP4)
T4 construct: expressed in transfected cells; host or cells: CHO cells
T4 sequence (P32240 whole entry): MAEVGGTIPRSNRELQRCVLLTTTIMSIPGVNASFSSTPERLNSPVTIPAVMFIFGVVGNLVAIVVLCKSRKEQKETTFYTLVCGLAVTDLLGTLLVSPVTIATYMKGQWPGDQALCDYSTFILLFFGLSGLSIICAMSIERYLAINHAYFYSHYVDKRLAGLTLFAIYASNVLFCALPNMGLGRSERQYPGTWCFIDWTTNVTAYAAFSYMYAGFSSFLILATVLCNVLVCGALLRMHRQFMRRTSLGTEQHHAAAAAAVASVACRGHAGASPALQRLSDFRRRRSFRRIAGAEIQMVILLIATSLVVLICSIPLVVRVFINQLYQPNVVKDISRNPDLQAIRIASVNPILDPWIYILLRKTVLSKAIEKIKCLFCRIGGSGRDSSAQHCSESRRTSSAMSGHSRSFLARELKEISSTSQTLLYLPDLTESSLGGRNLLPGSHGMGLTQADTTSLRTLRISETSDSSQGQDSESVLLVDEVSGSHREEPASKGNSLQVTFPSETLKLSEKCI
Experimental: as §1, §2, §3, §4, §5, §6

Ki (mouse EP1 receptor): > 10 µM
Ki (mouse EP2 receptor): > 10 µM
Ki (mouse EP3α receptor): 2.4 µM
Ki (mouse EP4 receptor): 0.3 µM
SMILES: CC(C(=O)Nc1ccccc1CCCC(=O)O)c1cccc2ccccc12 (stereo not shown) [Example 2, 4-[2-[2-(1-naphthyl)propanoylamino]phenyl]butanoic acid]
